Laboratory results reported in PMC7522982, “PKIS deep dive yields a chemical starting point for dark kinases and a cell active BRSK2 inhibitor” (Scientific Reports, 2020).

Columns and labels:
PIM2 = PIM2 (Homo sapiens, UniProt Q9P1W9); set-up: purchased Eurofins; method as in earlier work; conditions: cited from earlier work
[1] = test system: 17 different cancer and normal cell lines; experiment: cell growth, deep dye drop method; type: cell-based; conditions: 1 μM for 72 h; 17 cancer and normal cell lines; deep dye drop method (N = 2)
Experimental: (A) Structure of GW296115. […] Cell lines in the panel were treated with 1 μM GW296115 for 72 h (N = 2) and analyzed using the deep dye drop method. MCF10A and MRC-5 are non-malignant cell lines. […] Coral was used to make (C): https://phanstiel-lab.med.unc.edu/CORAL.
This compound was further profiled in 17 different cancer and normal cell lines to determine whether it impacted cell growth when treated at 1 μM for 72 h. […] Here we further explore the target engagement characteristics of GW296115 in vitro and in cells and capture its specificity for the CAMK family of kinases.

[2] = molecular target: T1, NLuc-BRSK2 in HEK293 cells (Homo sapiens, UniProt Q8IWQ3); experiment: BRSK2 NanoBRET cellular target engagement assay; type: cell-based; conditions: HEK293 cells transiently expressing NLuc-BRSK2; Tracer K5 1 μM; N = 3; read-out: BRSK2 NanoBRET data IC50
T1 construct: host or cells: HEK293
T1 sequence (Q8IWQ3 1-736): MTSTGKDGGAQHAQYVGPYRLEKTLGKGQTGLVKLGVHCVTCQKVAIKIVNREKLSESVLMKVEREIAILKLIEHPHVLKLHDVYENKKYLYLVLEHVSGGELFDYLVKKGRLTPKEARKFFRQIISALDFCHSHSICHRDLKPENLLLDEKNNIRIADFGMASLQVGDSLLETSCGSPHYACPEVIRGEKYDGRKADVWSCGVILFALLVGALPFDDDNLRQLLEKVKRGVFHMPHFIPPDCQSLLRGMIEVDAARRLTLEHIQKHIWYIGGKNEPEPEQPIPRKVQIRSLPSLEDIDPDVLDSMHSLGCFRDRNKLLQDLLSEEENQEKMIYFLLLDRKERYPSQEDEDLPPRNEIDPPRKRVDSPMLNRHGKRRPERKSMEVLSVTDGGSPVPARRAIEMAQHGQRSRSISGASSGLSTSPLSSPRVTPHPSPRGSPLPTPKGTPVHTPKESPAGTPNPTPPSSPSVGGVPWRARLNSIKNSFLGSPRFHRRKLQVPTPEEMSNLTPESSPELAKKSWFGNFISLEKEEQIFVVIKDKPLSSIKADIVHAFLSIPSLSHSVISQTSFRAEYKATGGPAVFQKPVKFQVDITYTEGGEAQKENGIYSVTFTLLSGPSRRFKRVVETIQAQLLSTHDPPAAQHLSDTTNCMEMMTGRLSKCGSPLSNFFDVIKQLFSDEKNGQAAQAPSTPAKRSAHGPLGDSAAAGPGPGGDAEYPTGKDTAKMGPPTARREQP
Experimental: Our interest in illuminating BRSK2 biology motivated further investigation of the cellular target engagement of BRSK2 by GW296115 using our NanoBRET assay. BRSK2 kinase was fused to 19-kDa luciferase (NLuc) at its N-terminus (NLuc–BRSK2) which was transiently expressed in HEK293 cells, and then incubated with a cell-permeable fluorescent energy transfer probe (tracer)[23].
NanoBRET assays were executed as described previously. Constructs for BRSK2 NanoBRET measurements were provided in kind by Promega. The N-terminal Nanoluciferase (NL)/BRSK2 fusion (NL-BRSK2) was encoded in pFN32K expression vector, including flexible Gly-Ser-Ser-Gly linkers between NL and BRSK2 (Promega). For cellular BRSK2 NanoBRET target engagement experiments, a 10 μg/mL solution of DNA in Opti-MEM without serum (Gibco) was prepared with 9 μg/mL of Carrier DNA (Promega) and 1 μg/mL of NL-BRSK2 to achieve a total volume of 1.05 mL. To this solution was then added 31.5 μL of FuGENE HD (Promega) to form a lipid:DNA complex, mixed by inversion 8 times, and incubated at room temperature for 20 min. The resulting transfection complex (1.082 mL) was next gently mixed with HEK293 cells (21 mL) suspended at a density of 2 × 10^5 cells/mL in DMEM containing 10% FBS.
After 24 h, media was removed via aspiration and 85 μL of room temperature Opti-MEM without phenol red (Gibco) was added to each well. […] Next, 5 μL (20 × working stock of NanoBRET Tracer K5 [20 μM] in Tracer Dilution Buffer (Promega N291B)) was added to each well with the exception of the “no tracer” control wells. Test compounds were prepared as concentrated stock solutions in 100% DMSO (Sigma) at a concentration of 10 mM. […] A volume of 10 μL of tenfold test compound stock solutions (final assay concentration of […]) was added to each well. For “no compound” and “no tracer” control wells, 10 μL of Opti-MEM plus DMSO (9 μL Opti-MEM plus 1 μL DMSO) was added to each well to achieve a final concentration of 1% DMSO.
After 2 h, plates were returned to room temperature over the course of 15 min. […] Next, 50 μL of the 3 × substrate/extracellular NL inhibitor stock was added to each well.
Test compounds were evaluated at 8 concentrations in competition with NanoBRET Tracer K5 in HEK293 cells transiently expressing the NL-BRSK2 fusion protein. Raw milliBRET (mBRET) values were obtained by dividing the acceptor emission values (600 nm) by the donor emission values (450 nm), and then multiplying by 1000. Averaged control values were used to represent complete inhibition (no tracer control: transfected cells in Opti-MEM + DMSO; tracer control: transfected cells in Opti-MEM + DMSO + Tracer K5 only), and were plotted alongside the raw mBRET values. The data with n = 3 biological replicates was first normalized and then fit using Sigmoidal, 4PL binding curve in Prism Software (version 8, GraphPad, La Jolla, CA, USA).

STK33 = STK33 (Homo sapiens, UniProt Q9BYT3); set-up: purchased Eurofins; method as in earlier work; conditions: cited from earlier work
STK33, sequence (Q9BYT3 whole entry): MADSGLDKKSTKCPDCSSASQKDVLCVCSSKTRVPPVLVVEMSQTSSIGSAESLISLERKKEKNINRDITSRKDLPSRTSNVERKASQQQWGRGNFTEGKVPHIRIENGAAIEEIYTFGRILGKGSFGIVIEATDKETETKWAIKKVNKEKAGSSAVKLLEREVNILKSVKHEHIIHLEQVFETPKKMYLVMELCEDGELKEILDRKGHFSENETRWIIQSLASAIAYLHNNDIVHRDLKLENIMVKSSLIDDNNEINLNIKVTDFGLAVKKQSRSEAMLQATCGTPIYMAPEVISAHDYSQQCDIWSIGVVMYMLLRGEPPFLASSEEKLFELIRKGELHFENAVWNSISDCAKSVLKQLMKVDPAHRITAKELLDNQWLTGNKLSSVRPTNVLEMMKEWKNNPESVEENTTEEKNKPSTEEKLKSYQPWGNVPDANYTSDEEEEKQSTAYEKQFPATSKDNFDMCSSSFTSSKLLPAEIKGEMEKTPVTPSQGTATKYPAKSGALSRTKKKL

RPS6KA3/RSK2 = experiment: DiscoverX scanMAX competition binding assay; set-up: species or system human
From the text: Based on its narrow profile when tested in the combined Nanosyn and TSA panels, GW296115 was included in the recently released Kinase Chemogenomic Set (KCGS)[15]. All of the data presented in the Introduction section was collected prior to the inclusion of GW296115 in KCGS and everything that follows has been subsequently generated. Since its inclusion in PKIS and more recently KCGS, we have carried out a broader round of screening at DiscoverX. This profiling data has not been previously released and is reported here for the first time. GW296115 was profiled against 403 wild type human kinases at 1 μM using the DiscoverX scanMAX screening platform, which employs an active site-directed competition binding assay to quantitatively measure interactions between test compounds and kinases, [16]. GW296115 inhibited 25 kinases > 90% at 1 μM, resulting in a selectivity index (S10) of 0.062 at 1 μM (Table S2, Fig. 1C)[17].
The scanMAX assays were performed at Eurofins DiscoverX Corporation as previously described.

PIM2, sequence (Q9P1W9 whole entry): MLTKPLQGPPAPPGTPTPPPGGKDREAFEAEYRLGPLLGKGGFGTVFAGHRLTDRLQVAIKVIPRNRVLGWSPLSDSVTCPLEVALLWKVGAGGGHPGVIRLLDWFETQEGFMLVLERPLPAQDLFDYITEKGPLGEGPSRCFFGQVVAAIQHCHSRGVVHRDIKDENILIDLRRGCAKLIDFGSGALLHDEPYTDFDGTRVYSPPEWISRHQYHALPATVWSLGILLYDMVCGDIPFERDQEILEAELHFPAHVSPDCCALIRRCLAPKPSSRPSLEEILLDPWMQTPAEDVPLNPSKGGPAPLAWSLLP

COc1ccc2[nH]c3c4[nH]c5ccc(OC)cc5c4c4c(c3c2c1)C(=O)NC4=O [GW296115]
TSA ΔTm at 10 μM (°C) (PIM2): 9.8 °C | effect on cell growth [1]: did not impact cell growth | IC50 [2]: 107 ± 28 nM | TSA ΔTm at 10 μM (°C) (STK33): 9.8 °C | DiscoverX % Inhibition at 1 μM (RPS6KA3/RSK2): 84%
